{"source": "ChEMBL document CHEMBL5512603", "about": "“Development of de-novo coronavirus 3-chymotrypsin-like protease (3CLpro) inhibitors since COVID-19 outbreak: A strategy to tackle challenges of persistent virus infection” (Eur J Med Chem, 2024)", "key": {"[1]": {"biological_target": "T1, Replicase polyprotein 1ab (Severe acute respiratory syndrome coronavirus 2, UniProt P0DTD1)", "assay": "Inhibition of recombinant SARS-CoV2 6xHis-tag-Main protease containing modified HRV-3C expressed in Escherichia coli using Mca-AVLQSGFR-K(Dnp)K peptide substrate assessed as fluorescent intensity"}, "[2]": {"assay": "Half life in rat", "assay_type": "ADME", "conditions": "in vivo"}, "[3]": {"test_system": "SARS-CoV-2", "assay": "Anti-viral activity against SARS-CoV-2 infected in K18-hACE2 mouse assessed as reduction in virus in lung at 100 mg/kg, ip twice daily measured after day 3", "assay_type": "functional", "conditions": "Severe acute respiratory syndrome coronavirus 2, 72 h, time 3 day"}, "[4]": {"test_system": "SARS-CoV-2", "assay": "Antiviral activity against SARS-CoV-2 infected in African green monkey Vero cells", "assay_type": "functional, organism-based", "conditions": "Severe acute respiratory syndrome coronavirus 2, Vero"}, "[5]": {"test_system": "SARS-CoV-2", "assay": "Antiviral activity against SARS-CoV-2 Canada/Vido 01/2020 infected in African green monkey Vero E6 cells assessed as inhibition of viral replication incubated for 48 hrs by plaque reduction assay", "assay_type": "functional, organism-based", "conditions": "Severe acute respiratory syndrome coronavirus 2, Canada/Vido 01/2020, Vero C1008, 48 h"}, "[6]": {"assay": "Oral bioavailability in Sprague-Dawley rat at 10 mg/kg", "assay_type": "ADME, organism-based", "conditions": "in vivo"}, "[7]": {"biological_target": "T1, Replicase polyprotein 1ab", "assay": "Inhibition of recombinant SARS-CoV-2 3CLp using fluorogenic substrate by microplate reader"}, "[8]": {"test_system": "SARS-CoV-2", "assay": "Antiviral activity against SARS-CoV-2", "assay_type": "functional, organism-based", "conditions": "Severe acute respiratory syndrome coronavirus 2"}, "[9]": {"biological_target": "T1, Replicase polyprotein 1ab", "assay": "Inhibition of SARS-CoV-2 recombinant 3CLpro using fluorogenic substrate (Dabcyl-KTSAVLQ]SGFRK M-E"}, "[10]": {"biological_target": "Protein cereblon/Replicase polyprotein 1ab (Severe acute respiratory syndrome coronavirus 2, UniProt P0DTD1+Q96SW2)", "sequence (Q96SW2 whole entry, other chains not shown)": "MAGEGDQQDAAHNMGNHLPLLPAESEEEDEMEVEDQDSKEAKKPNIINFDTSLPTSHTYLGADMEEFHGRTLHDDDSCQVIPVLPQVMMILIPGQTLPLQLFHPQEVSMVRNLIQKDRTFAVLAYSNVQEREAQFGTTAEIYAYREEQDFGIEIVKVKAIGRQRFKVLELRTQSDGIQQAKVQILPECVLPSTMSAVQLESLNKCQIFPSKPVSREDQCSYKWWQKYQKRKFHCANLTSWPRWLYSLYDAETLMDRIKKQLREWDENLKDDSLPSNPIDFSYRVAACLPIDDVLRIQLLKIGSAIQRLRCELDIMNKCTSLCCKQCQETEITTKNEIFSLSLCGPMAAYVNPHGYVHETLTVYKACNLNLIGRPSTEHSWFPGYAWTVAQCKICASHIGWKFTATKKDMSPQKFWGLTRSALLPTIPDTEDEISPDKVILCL", "assay": "PROTAC activity at SARS-CoV-2 Main protease/CRBN (unknown origin) in SARS-CoV-2 infected african green monkey Vero cell assessed as inhibition of virus-mediated cytopathic effect measured after 72 hrs", "assay_type": "cell-based"}, "[11]": {"test_system": "SARS-CoV-2", "assay": "Antiviral activity against wild type SARS-CoV-2 infected in human Calu-3 cells", "assay_type": "functional, organism-based", "conditions": "Severe acute respiratory syndrome coronavirus 2, Calu-3"}, "[12]": {"biological_target": "von Hippel-Lindau disease tumor suppressor-SARS-Cov-2 polyprotein (Severe acute respiratory syndrome coronavirus 2, UniProt P0DTD1+P40337)", "sequence (P40337 whole entry, other chains not shown)": "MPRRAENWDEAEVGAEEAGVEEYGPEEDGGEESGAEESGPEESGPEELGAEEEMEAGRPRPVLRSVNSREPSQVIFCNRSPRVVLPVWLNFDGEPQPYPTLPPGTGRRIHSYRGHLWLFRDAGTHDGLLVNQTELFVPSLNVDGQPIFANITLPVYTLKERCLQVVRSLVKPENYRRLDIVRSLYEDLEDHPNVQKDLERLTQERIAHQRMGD", "assay": "PROTAC activity at SARS-CoV-2 Main protease/VHL (unknown origin) in SARS-CoV-2 infected african green monkey Vero cell assessed as inhibition of virus-mediated cytopathic effect measured after 72 hrs", "assay_type": "cell-based"}, "[13]": {"test_system": "SARS-CoV-2", "assay": "Antiviral activity against SARS-CoV-2 infected in African green monkey Vero E6 cells at 0.1 MOI assessed as inhibition of virus induced cytopathic effect by CCK8 assay", "assay_type": "functional, organism-based", "conditions": "Severe acute respiratory syndrome coronavirus 2, Vero C1008"}, "[14]": {"assay": "Bioavailability in Sprague-Dawley rat at 20 mg/kg, ip", "assay_type": "ADME, organism-based", "conditions": "in vivo"}, "[15]": {"assay": "Oral bioavailability in Sprague-Dawley rat at 20 mg/kg", "assay_type": "ADME, organism-based", "conditions": "in vivo"}, "[16]": {"test_system": "SARS-CoV-2", "assay": "Antiviral activity against SARS-CoV-2 infected in HAPEpIC cells at 0.01 MOI assessed as reduction in viral RNA copies by RT-qPCR analysis", "assay_type": "functional, organism-based", "conditions": "Severe acute respiratory syndrome coronavirus 2"}, "[17]": {"biological_target": "T1, Replicase polyprotein 1ab", "assay": "Inhibition of SARS-CoV-2 3CLp using fluorescent substrate by FRET assay"}, "[18]": {"test_system": "SARS-CoV-2", "assay": "Antiviral activity against SARS-CoV-2 infected in African green monkey Vero E6 cells assessed as inhibition of virus induced cytopathic effect by CellTiter-Glo luminescent cell viability assay", "assay_type": "functional, organism-based", "conditions": "Severe acute respiratory syndrome coronavirus 2, Vero C1008"}, "[19]": {"assay": "Cytotoxicity against African green monkey Vero E6 cells", "assay_type": "toxicity, cell-based, Vero C1008", "conditions": "chlorocebus sabaeus"}, "[20]": {"biological_target": "T1, Replicase polyprotein 1ab", "assay": "Inhibition of 2019-nCoV-2 3CLp using fluorescent substrate by FRET assay"}}}
{"smiles": "COC(=O)Cn1sc2ccccc2c1=O", "values": [{"measurement": "IC50", "setting": "[1]", "value": 2830, "unit": "nM"}]}
{"smiles": "O=C[C@H](C[C@@H]1CCNC1=O)NC(=O)[C@H](CC1CCCCC1)NC(=O)c1cc2ccccc2[nH]1", "values": [{"measurement": "half-life", "setting": "[2]", "value": "> 4", "unit": "h"}, {"measurement": "inhibition in vivo at 100 mg/kg", "setting": "[3]", "value": 100, "unit": "%"}]}
{"smiles": "C[C@H](NC(=O)[C@@H](c1cccnc1)N(C(=O)C(Cl)Cl)c1ccc(-c2ccccc2)cc1)c1ccccc1", "values": [{"measurement": "EC50", "setting": "[4]", "value": 900, "unit": "nM"}]}
{"smiles": "COc1cccc2[nH]c(C(=O)N[C@@H](CC(C)C)C(=O)N[C@H](C#N)C[C@@H]3CCNC3=O)cc12", "values": [{"measurement": "EC50", "setting": "[5]", "value": "> 5000", "unit": "nM"}]}
{"smiles": "O=C[C@H](C[C@@H]1CCNC1=O)NC(=O)[C@@H]1[C@H]2CCC[C@H]2CN1C(=O)COc1ccc(Cl)c(Cl)c1", "values": [{"measurement": "bioavailability", "setting": "[6]", "value": 5.1, "unit": "%"}, {"measurement": "IC50", "setting": "[7]", "value": 19, "unit": "nM"}]}
{"smiles": "O=C[C@H](C[C@@H]1CCNC1=O)NC(=O)[C@@H]1[C@H]2CCC[C@H]2CN1C(=O)COc1ccc(Cl)cc1", "values": [{"measurement": "bioavailability", "setting": "[6]", "value": 7.2, "unit": "%"}, {"measurement": "IC50", "setting": "[7]", "value": 9, "unit": "nM"}]}
{"smiles": "CC1(C)[C@@H]2[C@@H](C(=O)N[C@H](C=O)C[C@@H]3CCNC3=O)N(C(=O)COc3ccc(Cl)cc3)C[C@@H]21", "values": [{"measurement": "bioavailability", "setting": "[6]", "value": 4.8, "unit": "%"}, {"measurement": "IC50", "setting": "[7]", "value": 9, "unit": "nM"}]}
{"smiles": "COc1cc(O)c2c(c1)O[C@H](c1cc(O)c(O)c(O)c1)[C@@H](O)C2=O", "values": [{"measurement": "EC50", "setting": "[8]", "value": 11500, "unit": "nM"}]}
{"smiles": "CC1(C)[C@@H]2[C@@H](C(=O)N[C@H](C=O)C[C@@H]3CCNC3=O)N(C(=O)COc3ccc(Cl)cc3Cl)C[C@@H]21", "values": [{"measurement": "bioavailability", "setting": "[6]", "value": 4.1, "unit": "%"}, {"measurement": "IC50", "setting": "[7]", "value": 10, "unit": "nM"}]}
{"smiles": "COc1cc(O)c2c(=O)c(O)c(-c3cc(O)c(O)c(O)c3)oc2c1", "values": [{"measurement": "EC50", "setting": "[8]", "value": 12600, "unit": "nM"}]}
{"smiles": "C[C@H](NC(=O)[C@@H](c1cccnc1)N(C(=O)C(Br)(Br)Br)c1ccc(-c2ccccc2)cc1)c1ccccc1", "values": [{"measurement": "EC50", "setting": "[4]", "value": 580, "unit": "nM"}]}
{"smiles": "CNC(=O)c1cc(Br)cc([N+](=O)[O-])c1N[C@H]1CCCC[C@H]1NC(=O)c1cncc2cc(O)ccc12", "values": [{"measurement": "IC50", "setting": "[9]", "value": 120000, "unit": "nM"}]}
{"smiles": "O=c1c(O)c(-c2cc(O)c(O)c(O)c2)oc2cc(OP(=O)(Oc3ccccc3)Oc3ccccc3)cc(O)c12", "values": [{"measurement": "EC50", "setting": "[8]", "value": 3150, "unit": "nM"}]}
{"smiles": "Cc1c(COC(=O)N[C@@H](CC(C)C)C(=O)N[C@@H](C[C@@H]2CCNC2=O)C(O)S(=O)(=O)O)nnn1CCOCCOCCOCCC(=O)Nc1cccc2c1C(=O)N(C1CCC(=O)NC1=O)C2=O", "note": "(some centres not stated)", "values": [{"measurement": "EC50", "setting": "[10]", "value": 2150, "unit": "nM"}]}
{"smiles": "COc1ccc(/C=C(\\C#N)C(=O)N(c2ccc(-c3ccccc3)cc2)[C@@H](C(=O)N[C@@H](C)c2ccccc2)c2cccnc2)cc1", "values": [{"measurement": "EC50", "setting": "[11]", "value": 6470, "unit": "nM"}]}
{"smiles": "Cc1ncsc1-c1ccc(CNC(=O)[C@@H]2C[C@@H](O)CC2C(=O)[C@@H](NC(=O)CCC(=O)NCCOCCn2nnc(COC(=O)N[C@@H](CC(C)C)C(=O)N[C@@H](C[C@@H]3CCNC3=O)C(O)S(=O)(=O)O)c2C)C(C)(C)C)cc1", "note": "(some centres not stated)", "values": [{"measurement": "EC50", "setting": "[12]", "value": 10100, "unit": "nM"}]}
{"smiles": "Cc1ncsc1-c1ccc(CNC(=O)[C@@H]2C[C@@H](O)CN2C(=O)[C@@H](NC(=O)CCOCCOCCOCCn2nnc(COc3ccc(OC(=O)N[C@@H](CC(C)C)C(=O)N[C@@H](C[C@@H]4CCNC4=O)C(O)S(=O)(=O)O)cc3)c2C)C(C)(C)C)cc1", "note": "(some centres not stated)", "values": [{"measurement": "EC50", "setting": "[12]", "value": 210, "unit": "nM"}]}
{"smiles": "CNC(=O)[C@@H](Cc1cccc(F)c1)NC(=O)C1CN(C(=O)c2cncc3cccc(O)c23)CCN1Cc1ccc(Cl)cc1Cl", "note": "(some centres not stated)", "values": [{"measurement": "IC50", "setting": "[9]", "value": 165000, "unit": "nM"}]}
{"smiles": "CC1(C)[C@@H]2[C@H]1CN(C(=O)COc1ccc(OC(F)(F)F)cc1)[C@H]2C(=O)N[C@@H](C=O)C[C@H]1CCNC1=O", "values": [{"measurement": "EC50", "setting": "[13]", "value": 860, "unit": "nM"}, {"measurement": "bioavailability", "setting": "[14]", "value": 78, "unit": "%"}, {"measurement": "bioavailability", "setting": "[15]", "value": 11.2, "unit": "%"}, {"measurement": "EC50", "setting": "[16]", "value": 1.2, "unit": "nM"}]}
{"smiles": "CCC[C@H]1C(=O)N2C[C@]3(C[C@H]2C#N)C(=O)Nc2ccc(cc23)CCCCCN1C(=O)c1cc2c(F)cc(F)c(F)c2[nH]1", "values": [{"measurement": "IC50", "setting": "[17]", "value": "< 100", "unit": "nM"}, {"measurement": "EC50", "setting": "[18]", "value": "< 100", "unit": "nM"}]}
{"smiles": "CC(C)[C@H]1C(=O)N2C[C@]3(C[C@H]2C#N)C(=O)Nc2ccc(cc23)CCCCCN1C(=O)c1cc2c(F)cc(F)c(F)c2[nH]1", "values": [{"measurement": "IC50", "setting": "[17]", "value": "< 100", "unit": "nM"}, {"measurement": "EC50", "setting": "[18]", "value": "< 100", "unit": "nM"}]}
{"smiles": "CC(C)(C)NC(=O)[C@@H](c1cccnc1)N(C(=O)c1cnco1)c1ccc(-c2ccccc2)cc1", "values": [{"measurement": "CC50", "setting": "[19]", "value": 67000, "unit": "nM"}, {"measurement": "IC50", "setting": "[20]", "value": 4970, "unit": "nM"}]}
{"smiles": "N#C[C@@H]1C[C@]23CN1C(=O)[C@H](c1ccccc1)N(C(=O)C1CN(c4ccc(F)cc4)N=N1)CCCCCc1ccc(c2c1)NC3=O", "note": "(some centres not stated)", "values": [{"measurement": "IC50", "setting": "[17]", "value": "< 100", "unit": "nM"}, {"measurement": "EC50", "setting": "[18]", "value": "> 1000", "unit": "nM"}]}
{"smiles": "C[C@H](NC(=O)[C@@H](c1cccnc1)N(C(=O)CC#N)c1ccc(-c2ccccc2)cc1)c1ccccc1", "values": [{"measurement": "EC50", "setting": "[11]", "value": 2920, "unit": "nM"}, {"measurement": "IC50", "setting": "[17]", "value": 500, "unit": "nM"}]}
